Activity calls are given as the source filed them.
Legend:
[1] = molecular target: Cytochrome P450 2D6 (Homo sapiens, UniProt P10635);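 note: CYP2D6 member of a cytochrome P450 panel assay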
[2] = molecular target: Cytochrome P450 2C9 (Homo sapiens, UniProt P11712)
[3] = molecular target: Cytochrome P450 2C19 (Homo sapiens, UniProt P33261); experiment: Cytochrome panel assay with activity outcomes. Panel member name: p450-cyp2c19 Compounds with AC50 equal or less than 10 uM are considered active; type: functional; conditions: read-out: AC50
[4] = molecular target: Cytochrome P450 3A4 (Homo sapiens, UniProt P08684);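 note: CYP3A4 tested as one member of a cytochrome P450 panel screen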
[5] = system: P388/ADR; experiment: cells; type: functional; conditions: Mus musculus
[6] = system: SN12K1; experiment: cells; type: functional; conditions: Homo sapiens
[7] = system: P388; experiment: cells; type: functional; conditions: Mus musculus
[8] = molecular target: Paired box protein Pax-8 (Homo sapiens, UniProt Q06710); experiment: inhibitors of PAX8-driven TPO luciferase reporter, dose response, RMG-I cells, cherry-pick (AID 687027); type: functional, cell-based;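 note: luciferase reporter driven by Pax8 target thyroperoxidase promoter measured by SteadyGlo luminescence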
[9] = molecular target: T1, Cytochrome P450 1A2 (Homo sapiens, UniProt P05177);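 note: PubChem cytochrome P450 panel assay, CYP1A2 panel member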
T1 sequence (P05177 whole entry): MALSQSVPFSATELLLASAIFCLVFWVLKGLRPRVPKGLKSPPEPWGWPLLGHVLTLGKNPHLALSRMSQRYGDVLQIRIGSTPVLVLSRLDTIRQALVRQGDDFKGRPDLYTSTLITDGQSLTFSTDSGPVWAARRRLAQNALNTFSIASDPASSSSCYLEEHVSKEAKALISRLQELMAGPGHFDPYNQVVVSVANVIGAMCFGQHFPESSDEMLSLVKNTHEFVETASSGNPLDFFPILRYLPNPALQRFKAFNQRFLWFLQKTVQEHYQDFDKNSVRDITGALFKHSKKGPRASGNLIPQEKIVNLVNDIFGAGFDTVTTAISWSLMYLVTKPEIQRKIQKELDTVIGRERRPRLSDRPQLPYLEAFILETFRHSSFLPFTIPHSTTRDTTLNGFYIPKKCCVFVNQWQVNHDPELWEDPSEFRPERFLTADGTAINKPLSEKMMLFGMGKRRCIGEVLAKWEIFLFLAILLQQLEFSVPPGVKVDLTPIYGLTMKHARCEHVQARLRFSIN

Chain of Cytochrome P450 2C19 (P33261 whole entry): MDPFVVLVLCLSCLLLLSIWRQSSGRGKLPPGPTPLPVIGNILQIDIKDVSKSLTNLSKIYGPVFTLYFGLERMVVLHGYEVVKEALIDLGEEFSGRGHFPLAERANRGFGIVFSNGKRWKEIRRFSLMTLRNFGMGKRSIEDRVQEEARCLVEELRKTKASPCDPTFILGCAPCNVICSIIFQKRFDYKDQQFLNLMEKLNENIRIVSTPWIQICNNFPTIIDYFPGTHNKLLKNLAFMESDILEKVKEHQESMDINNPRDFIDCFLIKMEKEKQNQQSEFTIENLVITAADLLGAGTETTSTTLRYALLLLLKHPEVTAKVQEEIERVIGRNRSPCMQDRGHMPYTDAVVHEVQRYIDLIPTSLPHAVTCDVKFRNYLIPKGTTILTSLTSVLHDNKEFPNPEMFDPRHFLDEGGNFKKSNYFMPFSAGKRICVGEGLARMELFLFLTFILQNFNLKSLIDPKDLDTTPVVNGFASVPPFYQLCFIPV
Chain of Cytochrome P450 2D6 (P10635 whole entry): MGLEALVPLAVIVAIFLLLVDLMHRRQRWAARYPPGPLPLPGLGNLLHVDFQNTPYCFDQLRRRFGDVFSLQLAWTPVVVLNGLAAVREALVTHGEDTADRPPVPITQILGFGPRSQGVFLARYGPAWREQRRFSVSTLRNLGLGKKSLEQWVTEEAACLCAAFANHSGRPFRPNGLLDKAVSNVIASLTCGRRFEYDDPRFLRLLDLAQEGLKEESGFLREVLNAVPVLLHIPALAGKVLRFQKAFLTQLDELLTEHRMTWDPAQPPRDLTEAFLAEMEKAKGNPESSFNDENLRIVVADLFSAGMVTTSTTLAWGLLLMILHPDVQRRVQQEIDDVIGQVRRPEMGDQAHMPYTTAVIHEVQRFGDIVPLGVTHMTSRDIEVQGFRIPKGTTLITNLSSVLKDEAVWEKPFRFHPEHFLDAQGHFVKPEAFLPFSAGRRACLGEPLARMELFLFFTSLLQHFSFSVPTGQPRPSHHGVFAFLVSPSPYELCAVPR
Chain of Cytochrome P450 2C9 (P11712 whole entry): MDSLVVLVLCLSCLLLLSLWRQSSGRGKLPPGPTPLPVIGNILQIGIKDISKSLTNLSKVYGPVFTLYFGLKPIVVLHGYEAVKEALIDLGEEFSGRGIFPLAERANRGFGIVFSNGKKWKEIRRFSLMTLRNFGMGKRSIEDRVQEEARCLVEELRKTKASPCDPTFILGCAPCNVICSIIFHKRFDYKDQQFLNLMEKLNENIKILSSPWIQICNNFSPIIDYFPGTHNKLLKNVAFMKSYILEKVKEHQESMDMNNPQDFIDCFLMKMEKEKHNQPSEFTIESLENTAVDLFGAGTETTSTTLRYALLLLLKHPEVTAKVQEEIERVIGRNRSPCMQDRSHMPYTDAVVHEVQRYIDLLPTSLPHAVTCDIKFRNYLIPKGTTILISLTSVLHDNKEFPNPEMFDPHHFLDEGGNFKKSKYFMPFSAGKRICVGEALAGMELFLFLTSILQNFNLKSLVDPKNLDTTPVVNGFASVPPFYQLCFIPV
Chain of Cytochrome P450 3A4 (P08684 whole entry): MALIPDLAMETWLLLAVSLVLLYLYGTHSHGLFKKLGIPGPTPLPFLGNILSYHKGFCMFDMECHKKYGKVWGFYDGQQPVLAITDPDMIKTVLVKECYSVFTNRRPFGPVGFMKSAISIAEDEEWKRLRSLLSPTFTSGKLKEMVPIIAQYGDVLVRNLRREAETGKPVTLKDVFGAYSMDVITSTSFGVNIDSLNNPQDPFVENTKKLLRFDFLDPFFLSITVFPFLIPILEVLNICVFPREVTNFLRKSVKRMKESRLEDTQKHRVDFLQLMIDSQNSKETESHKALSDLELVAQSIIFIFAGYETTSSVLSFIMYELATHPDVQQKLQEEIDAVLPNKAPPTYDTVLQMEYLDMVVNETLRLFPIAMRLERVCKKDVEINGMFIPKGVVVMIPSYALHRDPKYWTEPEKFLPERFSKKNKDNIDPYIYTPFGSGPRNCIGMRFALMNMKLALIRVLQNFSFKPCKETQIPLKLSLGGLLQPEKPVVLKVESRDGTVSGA
Chain of Paired box protein Pax-8 (Q06710 whole entry): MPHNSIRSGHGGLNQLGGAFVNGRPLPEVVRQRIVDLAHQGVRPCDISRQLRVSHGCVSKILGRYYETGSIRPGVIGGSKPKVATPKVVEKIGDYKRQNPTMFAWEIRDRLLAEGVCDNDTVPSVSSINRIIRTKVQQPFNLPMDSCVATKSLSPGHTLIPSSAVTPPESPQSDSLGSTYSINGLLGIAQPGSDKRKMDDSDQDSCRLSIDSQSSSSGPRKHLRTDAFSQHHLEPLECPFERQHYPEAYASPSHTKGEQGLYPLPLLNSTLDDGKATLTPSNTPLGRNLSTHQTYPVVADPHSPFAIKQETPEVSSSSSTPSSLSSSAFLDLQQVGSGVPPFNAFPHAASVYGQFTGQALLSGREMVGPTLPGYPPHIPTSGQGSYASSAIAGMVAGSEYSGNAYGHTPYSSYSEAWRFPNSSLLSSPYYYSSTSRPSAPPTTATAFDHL

O=S(=O)(c1ccccc1)N1CCC2(CCN(Cc3nccs3)CC2)CC1 was tested, and the AC50 [1] was 25.1 µM (inconclusive).

In the case of CC1=C(C(=O)Nc2ccccc2)C(c2ccco2)NC(S)=N1 (centres undefined), the AC50 [2] is reported as 12.6 µM (inconclusive).

For N#Cc1cc(-c2ccc(Cl)cc2)cnc1Sc1ccc(F)cc1, the AC50 [3] was 1 µM (inconclusive), the AC50 [4] was 14.1 µM (inconclusive) and the AC50 [2] was 7.94 µM (inconclusive).

CC(=O)OC1CC2(O)C(CCC3(C)C(c4ccc(=O)oc4)CCC32O)C2(C)C1=CC(O)C1OC12 (centres undefined) was tested, and the GI50 [5] was 79.1 µM (inactive), the GI50 [6] was 0.0424 µM (active) and the GI50 [7] was 46.1 µM (inactive).

In the case of COC1=C(C)C(=O)C2=C(C1=O)C(CO)N1C(C#N)C3CC4C(C1C2N1CCOC41)N3C (centres undefined), the GI50 [5] is reported as 0.01 µM (active), the GI50 [6] is reported as 0.294 µM (active) and the GI50 [7] is reported as < 0.01 µM (active). For the same compound, the AC50 [8] was < 0.26 µM (active).

With COc1cc(NC(=O)COC(=O)c2nc3nc(C)cc(C)n3n2)cc(OC)c1 the AC50 [1] was 15.8 µM (inconclusive) and the AC50 [2] was 28.2 µM (inconclusive).

In the case of c1ccc(-c2cccc(N3CC4(CCNCC4)C3)c2)cc1, the AC50 [9] is reported as 12.6 µM (inconclusive).

With C=CCC(O[Si](C)(C)C(C)(C)C)c1cc(O[Si](C)(C)C(C)(C)C)ccc1OC (centres undefined) the GI50 [5] was > 100 µM (inactive), the GI50 [6] was > 100 µM (inactive) and the GI50 [7] was 22.2 µM (inactive).

In the case of CC(=O)c1c(O)c(C)c(O)c(Cc2c(O)c3c(c(C(=O)/C=C\c4ccccc4)c2O)OC(C)(C)C=C3)c1O, the AC50 [9] is reported as 31.6 µM (inconclusive).

COc1ccc(C(=O)N2CC3(CC(c4ccc(Cl)cc4)=NO3)C[C@H]2C(=O)NCC(N)=O)cc1 (some centres undefined) was tested, and the AC50 [4] was 31.6 µM (inconclusive).

For Cc1ccc(-c2nnc(-c3ccc(NC(=O)c4cccs4)cc3)o2)cc1, the AC50 [4] was 20 µM (inconclusive).

With C[C@H]1CC(C)(C)C[C@@](OCCN2CCCCC2)(c2ccccc2)C1 the AC50 [4] was 3.16 µM (inconclusive).

In the case of CCOC(=O)CC(Nc1nc(N2CCOCC2)nc(N2CCOCC2)n1)c1ccccc1Cl (centres undefined), the AC50 [9] is reported as 10 µM (inconclusive) and the AC50 [4] is reported as 25.1 µM (inconclusive).

In the case of CC(C)CCN1C(=O)c2ccc(-c3nc4ccccc4c(=O)o3)cc2C1=O, the AC50 [9] is reported as 15.8 µM (inconclusive) and the AC50 [2] is reported as 3.16 µM (inconclusive).

With COc1cccc2c1C(=O)c1c(O)c3c(c(O)c1C2=O)C[C@@](O)(C(=O)CO)C[C@@H]3OC1CC(N2CCOCC2)C(O)C(C)O1 (some centres undefined) the GI50 [5] was 0.00136 µM (active), the GI50 [6] was 0.00366 µM (active) and the GI50 [7] was 0.0025 µM (active).

In the case of O=P1(c2ccccc2)Nc2ccccc2SSc2ccccc2N1, the GI50 [5] is reported as 7.45 µM (inactive), the GI50 [6] is reported as 15.3 µM (inactive) and the GI50 [7] is reported as 0.839 µM (active).

With N#Cc1ccccc1-c1ccc2ncnc(NC3CC3)c2c1 the AC50 [3] was 7.94 µM (inconclusive) and the AC50 [1] was 39.8 µM (inconclusive).

With COc1ccc(/N=C2/S/C(=C\c3ccc(C)s3)C(=O)N2CC(C)C)cc1 the AC50 [4] was 5.01 µM (inconclusive).

COc1cccc(C2NC(c3cccc(OC)c3O)C(C)C(=O)C2C)c1O (centres undefined) was tested, and the AC50 [1] was 7.94 µM (inconclusive) and the AC50 [2] was 10 µM (inconclusive).

In the case of N#Cc1ccccc1-c1cncnc1NCc1cccnc1, the AC50 [4] is reported as 0.2 µM (inconclusive).

For CN(Cc1ccco1)c1cc(-c2cccc(NS(C)(=O)=O)c2)ncn1, the AC50 [3] was 31.6 µM (inconclusive) and the AC50 [1] was 25.1 µM (inconclusive).

O=C(O)Cc1ccc2c(c1)N(S(=O)(=O)c1cccc(C(F)(F)F)c1)CC(C(=O)O)O2 (centres undefined) was tested, and the AC50 [3] was 25.1 µM (inconclusive) and the AC50 [2] was 15.8 µM (inconclusive).

For CNc1cnn(-c2ccccc2)c(=O)c1Cl, the AC50 [9] was 28.2 µM (inconclusive) and the AC50 [2] was 1 µM (inconclusive).

With COCC(=O)N1CCC[C@@]2(CCN(C(c3ccccc3)c3ccccc3)C2)C1 the AC50 [9] was 12.6 µM (inconclusive) and the AC50 [4] was 10 µM (inconclusive).

CN(C)CCNC(=O)c1cc(Cl)cc2ccc(-c3ccccc3)nc12 was tested, and the GI50 [5] was 1.47 µM (inactive), the GI50 [6] was 1.77 µM (inactive) and the GI50 [7] was 0.476 µM (active).
